Reference: patent US10428054B2, “Kynurenine-3-monooxygenase inhibitors, pharmaceutical compositions, and methods of use thereof” (CHDI Foundation, Inc., priority 2013, dated 2019)
Where two headings read alike, the source gives them in different places.

Molecular target: T1, KMO mouse enzyme (Mus musculus, UniProt Q91WN4)
T1 construct: KMO enzyme prepared at Evotec from mouse liver (4-6 weeks old) via mitochondria isolation; from tissue; host or cells: mouse liver (4-6 weeks old), mitochondria isolation, prepared at Evotec
Assay: KMO enzyme assay: L-Kynurenine hydroxylation to 3-Hydroxy-Kynurenine by LC/MS (protocols substantially similar to Biology Example 3)
Format: biochemical
Settings: for inhibition at 10 µM: compound at 10 uM (stated in cell; head says 30 μM)
Description: A method of monitoring L-Kynurenine (KYN) hydroxylation to form 3-Hydroxy-Kynurenine (30H-KYN) by LC/MS is described. Product is quantified by multiple reaction monitoring (MRM method).
• Compound: Stock concentrations: 10 mM in 100% DMSO • Enzyme: KMO enzyme prepared at Evotec from mouse liver (4-6 weeks old) via mitochondria isolation as described in the literature • Substrate: L-Kynurenine (Sigma: Cat# K3750, stock concentration: 10 mM in 100 mM potassium phosphate buffer, pH 7.4) Assay Conditions: • Buffer: 100 mM potassium phosphate, pH 7.4, 200 μM NADPH, 0.4 U/ml G6P-DH (Glucose 6-phosphate Dehydrogenase), 3 mM G6P (D-Glucose 6-phosphate) • Assay Volume: 40 μl • Plate Format: 384 well plate, transparent (Matrix) • Read-Out: product (30H-KYN) quantification using product specific MRM • Reader: LC/MS/MS Assay Protocol: • prepare serial dilution (factor 3) of compound in 100% DMSO (top concentration=10 mM, 100% DMSO) • [8 points: 10 mM; 3.33 mM; 1.11 mM; 0.37 mM; 0.12 mM; 0.04 mM; 0.0137 mM; 0.0045 mM, 0.0015 mM] • prepare […] concentrated solution of each compound concentration (top concentration 300 μM, 3% DMSO) in assay buffer • [concentrations: 300 μM; 100 μM; 33.3 μM; 11.1 μM; 3.70 μM; 1.23 μM; 0.41 μM; 0.137 μM] • prepare substrate (10 mM) at concentration of 1 mM in assay buffer • assay mix: 4 μl compound/well of each concentration+24 μl assaybuffer/well+8 μl KMO mouse enzyme+4 μl 1 mM substrate (final concentration=100 μM) • [final compound top concentration: 30 μM; 0.3% DMSO] • [final compound bottom concentration: 0.0137 μM; 0.3% DMSO] • positive control: 4 μl […] FCE28833 in assay buffer, 0.5% DMSO [final assay concentration=50 μM]+24 μl assaybuffer/well+8 μl KMO mouse enzyme+4 μl 1 mM substrate[final concentration=100 μM] • negative control: 28 μl assay buffer/well+8 μl KMO mouse enzyme+4 μl 1 mM substrate [final concentration=100 μM] • incubate 40 min at RT • add 40 μl/well 10% trichloro acetic acid in water to stop the assay and precipitate protein • centrifuge plate for 3 min at 4000 rpm • product detection by LC/MS (injection of 20 μl/well, 2 fold overfill of the 10 μl sample loop) Data Analysis:
IC50's are calculated using automated fitting algorithm (A+ Analysis).
Using the assay protocols substantially similar to those of Biology Example 3, the following compounds were tested.

[1] = compound at 30 μM, Biology Example 4 table, read-out: Percent Inhibition at 30 μM
[2] = compound at 30 μM, tables of Methods 1-6, read-out: % Inhibition at 30 μM

T1 sequence (Q91WN4 whole entry): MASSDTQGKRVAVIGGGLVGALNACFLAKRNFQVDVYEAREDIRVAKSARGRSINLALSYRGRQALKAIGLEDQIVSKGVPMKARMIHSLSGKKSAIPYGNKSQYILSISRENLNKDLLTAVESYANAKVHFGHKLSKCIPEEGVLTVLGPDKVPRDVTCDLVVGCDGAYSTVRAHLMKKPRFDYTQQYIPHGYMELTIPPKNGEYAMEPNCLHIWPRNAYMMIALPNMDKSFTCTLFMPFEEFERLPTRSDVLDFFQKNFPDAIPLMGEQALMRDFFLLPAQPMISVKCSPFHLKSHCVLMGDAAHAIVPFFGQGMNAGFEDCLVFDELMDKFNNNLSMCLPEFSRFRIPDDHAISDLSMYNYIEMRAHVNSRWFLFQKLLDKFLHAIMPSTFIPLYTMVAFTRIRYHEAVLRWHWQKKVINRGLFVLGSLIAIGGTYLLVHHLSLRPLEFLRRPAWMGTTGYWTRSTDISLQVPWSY

| SMILES | inhibition at 30 µM [1] [%] | inhibition at 30 µM [2] [%] | inhibition at 10 µM (Biology Example 4 table, read-out: Percent Inhibition (at 10 uM)) [%] | inhibition at 10 µM (table of Method 2, read-out: % Inhibition (at 10 uM)) [%] | % Inhibition at 30 μM (compound at 30 μM, tables of Methods 1-6, 30 µM) [%] |
| --- | --- | --- | --- | --- | --- |
| O=C(O)[C@H]1C[C@@H]1C(=O)c1ccc(Cl)s1 [Example 1, Method 1, (1S,2S)-2-[(5-Chlorothiophen-2-yl)carbonyl]cyclopropane-1-carboxylic acid] | 101 | 101 |  |  |  |
| O=C(O)[C@H]1C[C@@H]1C(=O)c1nccs1 [Example 1, Method 2, (1S,2S)-2-[(1,3-Thiazol-2-yl)carbonyl]cyclopropane-1-carboxylic acid] |  |  | 28.7 | 28.7 |  |
| Cc1nc2ccc(C(=O)[C@H]3C[C@@H]3C(=O)O)cc2s1 [Example 1, Method 3, (1S,2S)-2-(2-Methyl-1,3-benzothiazole-6-carbonyl)cyclopropane-1-carboxylic acid] | 74.5 |  |  |  | 98.3 |
| O=C(O)[C@H]1C[C@@H]1C(=O)c1cc(Cl)c2occc2c1 [Example 1, Method 4, (1S,2S)-2-(7-Chloro-1-benzofuran-5-carbonyl)cyclopropane-1-carboxylic acid] | 100 | 100 |  |  |  |
| Cc1cc2cc(C(=O)[C@H]3C[C@@H]3C(=O)O)cc(Cl)c2o1 [Example 1, Method 6, (1S,2S)-2-(7-chloro-2-methyl-1-benzofuran-5-carbonyl)cyclopropane-1-carboxylic acid] |  | 102 |  |  |  |
| O=C(O)[C@H]1C[C@@H]1C(=O)c1ccsc1 [Example 2, Method 1, (1S,2S)-2-[(Thiophen-3-yl)carbonyl]cyclopropane-1-carboxylic acid] | 83.2 | 83.2 |  |  |  |
| O=C(O)[C@H]1C[C@@H]1C(=O)c1nc2ccccc2s1 [Example 2, Method 2, (1S,2S)-2-[(1,3-Benzothiazol-2-yl)carbonyl]cyclopropane-1-carboxylic acid] | 91.8 | 91.8 |  |  |  |
| O=C(O)[C@H]1C[C@@H]1C(=O)c1cc(Cl)c2nccnc2c1 [Example 2, Method 3, (1S,2S)-2-(8-Chloroquinoxaline-6-carbonyl)cyclopropane-1-carboxylic acid] | 101 | 101 |  |  |  |
| O=C(O)[C@H]1C[C@@H]1C(=O)c1cccs1 [Example 3, Method 1, (1S,2S)-2-[(Thiophen-2-yl)carbonyl]cyclopropane-1-carboxylic acid] | 80.3 | 80.3 |  |  |  |
| O=C(O)[C@H]1C[C@@H]1C(=O)c1ccccn1 [Example 3, Method 2, (1S,2S)-2-[(Pyridin-2-yl)carbonyl]cyclopropane-1-carboxylic acid] | 45.6 | 45.6 |  |  |  |
| O=C(O)[C@H]1C[C@@H]1C(=O)c1cc(Cl)c2ncccc2c1 [Example 3, Method 3, (1S,2S)-2-(8-Chloroquinoline-6-carbonyl)cyclopropane-1-carboxylic acid] | 100 | 100 |  |  |  |
